Counter-ions that a name gives are not always drawn.
System: HiBiT-HSD17β13 fusion protein (N-terminal HiBiT-tagged HSD17β13 isoform D) in Huh7 HiBiT-HSD17β13 OE cells
Test: Whole-cell Huh7-HSD17B13 HiBiT assay (degrader potency and maximal efficacy, luminescence readout)
Type: cell-based, human
Conditions: 24 hour incubation, geometric mean, * = geometric mean for all forms tested (parent and salt forms); for DC50: read-out: Huh7_HIBIT-HSD17β13_DC50 GMean DC50; for Huh7_HIBIT-HSD17β13_DC50 GMean Asymptote Maximum: max. concentration 1 μM
In short: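 Huh7 cells stably overexpressing N-terminal HiBiT-tagged HSD17β13 isoform D, clone matched to primary hepatocyte expression, were exposed to an 11-point, 1 in 3.162 dilution series (top 1 μM final) for 24 h at 37° C. Lytic HiBiT luminescence was normalised to DMSO and parental-cell controls; DC50 from four-parameter logistic fit, with CellTiter-Glo counter screen.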

Row | SMILES | DC50 [nM] | Huh7_HIBIT-HSD17β13_DC50 GMean Asymptote Maximum [%]
1 | Cn1c(=O)n(C2CCC(=O)NC2=O)c2ccc(CCC3CN(c4ncc(-c5ccc6cn([C@H]7CC[C@H](CNC(=O)c8cc(F)c(O)c(F)c8F)CC7)nc6c5)cn4)C3)cc21 (mixture of isomers) [Example 41, N-{[(1r,4r)-4-(6-{2-[3-(2-{1-[(3RS)-2,6-dioxopiperidin-3-yl]-3-methyl-2-oxo-2,3-dihydro-1H-benzimidazol-5-yl}ethyl)azetidin-1-yl]pyrimidin-5-yl}-2H-indazol-2-yl)cyclohexyl]methyl}-2,3,5-trifluoro-4-hydroxybenzamide] | 0.86 | 81
2 | Cn1c(=O)n(C2CCC(=O)NC2=O)c2ccc(CCN3CCN(c4ncc(-c5ccc6cn([C@H]7CC[C@H](CNC(=O)c8cc(F)c(O)c(F)c8F)CC7)nc6c5)cn4)CC3)cc21 (mixture of isomers) [Example 43, N-{[(1r,4r)-4-(6-{2-[4-(2-{1-[(3RS)-2,6-dioxopiperidin-3-yl]-3-methyl-2-oxo-2,3-dihydro-1H-benzimidazol-5-yl}ethyl)piperazin-1-yl]pyrimidin-5-yl}-2H-indazol-2-yl)cyclohexyl]methyl}-2,3,5-trifluoro-4-hydroxybenzamide, trifluoroacetate salt] | 0.29 | 83
3 | Cn1c(=O)n(C2CCC(=O)NC2=O)c2ccc(CCN3CCC(F)(Cc4ccc5cn([C@H]6CC[C@H](CNC(=O)c7cc(F)c(O)c(F)c7F)CC6)nc5c4)CC3)cc21 (mixture of isomers) [Example 44, N-{[(1r,4r)-4-(6-{[1-(2-{1-[(3RS)-2,6-dioxopiperidin-3-yl]-3-methyl-2-oxo-2,3-dihydro-1H-benzimidazol-5-yl}ethyl)-4-fluoropiperidin-4-yl]methyl}-2H-indazol-2-yl)cyclohexyl]methyl}-2,3,5-trifluoro-4-hydroxybenzamide, trifluoroacetate salt] | 1.5 | 84
4 | Cn1c(=O)n(C2CCC(=O)NC2=O)c2ccc(CC3CCN(c4ncc(-c5ccc6cn([C@H]7CC[C@H](CNC(=O)c8cc(F)c(O)c(F)c8F)CC7)nc6c5)cn4)CC3)cc21 (mixture of isomers) [Example 46, N-{[(1r,4r)-4-(6-{2-[4-({1-[(3RS)-2,6-dioxopiperidin-3-yl]-3-methyl-2-oxo-2,3-dihydro-1H-benzimidazol-5-yl}methyl)piperidin-1-yl]pyrimidin-5-yl}-2H-indazol-2-yl)cyclohexyl]methyl}-2,3,5-trifluoro-4-hydroxybenzamide, trifluoroacetate salt] | 0.57 | 84
5 | Cn1c(=O)n(C2CCC(=O)NC2=O)c2ccc(CN3CCN(c4ccc5cn([C@H]6CC[C@H](CNC(=O)c7cc(F)c(O)c(F)c7F)CC6)nc5c4)CC3)cc21 (mixture of isomers) [Example 51, N-{[(1r,4r)-4-{6-[4-({1-[(3RS)-2,6-dioxopiperidin-3-yl]-3-methyl-2-oxo-2,3-dihydro-1H-benzimidazol-5-yl}methyl)piperazin-1-yl]-1H-indazol-2-yl}cyclohexyl]methyl}-2,3,5-trifluoro-4-hydroxybenzamide, trifluoroacetate salt] | 2.1 | 73
6 | Cn1c(=O)n(C2CCC(=O)NC2=O)c2cccc(CN3CCN(c4ccc5cn([C@H]6CC[C@H](CNC(=O)c7cc(F)c(O)c(F)c7F)CC6)nc5c4)CC3)c21 (mixture of isomers) [Example 52, N-{[(1r,4r)-4-{6-[4-({1-[(3RS)-2,6-dioxopiperidin-3-yl]-3-methyl-2-oxo-2,3-dihydro-1H-benzimidazol-4-yl}methyl)piperazin-1-yl]-2H-indazol-2-yl}cyclohexyl]methyl}-2,3,5-trifluoro-4-hydroxybenzamide, trifluoroacetate salt] | 1.6 | 80
7 | Cn1c(=O)n(C2CCC(=O)NC2=O)c2ccc(CCN3CCN(c4ccc(-c5noc([C@]67CC[C@](CNC(=O)c8cc(F)c(O)c(F)c8F)(CC6)CC7)n5)nn4)CC3)cc21 (mixture of isomers) [Example 55, N-{[4-(3-{6-[4-(2-{1-[(3RS)-2,6-dioxopiperidin-3-yl]-3-methyl-2-oxo-2,3-dihydro-1H-benzimidazol-5-yl}ethyl)piperazin-1-yl]pyridazin-3-yl}-1,2,4-oxadiazol-5-yl)bicyclo[2.2.2]octan-1-yl]methyl}-2,3,5-trifluoro-4-hydroxybenzamide, trifluoroacetate salt] | 0.49 | 82
8 | Cn1c(=O)n(C2CCC(=O)NC2=O)c2cccc(CCN3CCN(c4ccc5cn([C@H]6CC[C@H](CNC(=O)c7cc(F)c(O)c(F)c7F)CC6)nc5c4)CC3)c21 (mixture of isomers) [Example 56, N-{[(1r,4r)-4-{6-[4-(2-{1-[(3RS)-2,6-dioxopiperidin-3-yl]-3-methyl-2-oxo-2,3-dihydro-1H-benzimidazol-4-yl}ethyl)piperazin-1-yl]-2H-indazol-2-yl}cyclohexyl]methyl}-2,3,5-trifluoro-4-hydroxybenzamide, trifluoroacetate salt] | 0.64 | 82
9 | Cn1c(=O)n(C2CCC(=O)NC2=O)c2ccc(CCN3CCN(c4nccc(-c5nc([C@]67CC[C@](CNC(=O)c8cc(F)c(O)c(F)c8F)(CC6)CC7)no5)n4)CC3)cc21 (mixture of isomers) [Example 60, N-{[4-(5-{2-[4-(2-{1-[(3RS)-2,6-dioxopiperidin-3-yl]-3-methyl-2-oxo-2,3-dihydro-1H-benzimidazol-5-yl}ethyl)piperazin-1-yl]pyrimidin-4-yl}-1,2,4-oxadiazol-3-yl)bicyclo[2.2.2]octan-1-yl]methyl}-2,3,5-trifluoro-4-hydroxybenzamide, trifluoroacetate salt] | 0.65 | 78
10 | Cn1c(=O)n(C2CCC(=O)NC2=O)c2ccc(CCN3CCC(Cc4ccc5cn([C@H]6CC[C@H](CNC(=O)c7cc(F)c(O)c(F)c7F)CC6)nc5c4)C(F)(F)C3)cc21 (mixture of isomers) [Example 64, N-{[(1r,4r)-4-(6-{[1-(2-{1-[(3RS)-2,6-dioxopiperidin-3-yl]-3-methyl-2-oxo-2,3-dihydro-1H-benzimidazol-5-yl}ethyl)-3,3-difluoropiperidin-4-yl]methyl}-2H-indazol-2-yl)cyclohexyl]methyl}-2,3,5-trifluoro-4-hydroxybenzamide, trifluoroacetate salt] | 0.51 | 85
11 | Cn1c(=O)n(C2CCC(=O)NC2=O)c2ccc(CCCN3CC(F)(F)CC4(CCN(c5ccc6cn([C@H]7CC[C@H](CNC(=O)c8cc(F)c(O)c(F)c8F)CC7)nc6c5)C4=O)C3)cc21 (mixture of isomers) [Example 65, N-{[(1r,4r)-4-{6-[7-(3-{1-[(3RS)-2,6-dioxopiperidin-3-yl]-3-methyl-2-oxo-2,3-dihydro-1H-benzimidazol-5-yl}propyl)-9,9-difluoro-1-oxo-2,7-diazaspiro[4.5]decan-2-yl]-2H-indazol-2-yl}cyclohexyl]methyl}-2,3,5-trifluoro-4-hydroxybenzamide, trifluoroacetate salt] | 3.8 | 81

Source: patent US20240238425A1, “HSD17B13 Inhibitors and/or Degraders” (Pfizer Inc., priority 2022, published 2024)
